Assay results from patent publication US8952024B2, “Herbicidal pyrimidone derivatives” (E I du Pont de Nemours and Company, priority 2009, dated 2015).

Tests used:
Assay type in all cases: in vivo
[1] = test system: morningglory (Ipomoea spp.); assay: Test A pre-/postemergence plant response
Summary of the method: (§1)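 Both pre- and postemergence treatments are applied simultaneously, using chemicals formulated in a non-phytotoxic solvent mixture with surfactant. Postemergence plants are 2–10 cm high with one to two leaves. After approximately ten days in a greenhouse, injury is scored visually from 0 (none) to 100 (complete control) relative to untreated plants.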

[2] = test system: pigweed (Amaranthus retroflexus); assay: Test A pre-/postemergence plant response
Summary of the method: as §1

[3] = test system: giant foxtail (Setaria faberii); assay: Test A pre-/postemergence plant response
Summary of the method: as §1

[4] = test system: velvetleaf (Abutilon theophrasti); assay: Test A pre-/postemergence plant response
Summary of the method: as §1

[5] = test system: wheat (Triticum aestivum); assay: Test A pre-/postemergence plant response
Summary of the method: as §1

[6] = test system: barnyardgrass (Echinochloa crus-galli); assay: Test A pre-/postemergence plant response
Summary of the method: as §1

[7] = test system: corn (Zea mays); assay: Test A pre-/postemergence plant response
Summary of the method: as §1

[8] = test system: large crabgrass (Digitaria sanguinalis); assay: Test A pre-/postemergence plant response
Summary of the method: as §1

[9] = test system: umbrella sedge (Cyperus difformis); assay: Test B flooded paddy test; conditions: for Plant response rating, Flood, Sedge, Umbrella: 250 g ai/ha, flooded paddy test, visual rating on 0 to 100 scale (0 no effect, 100 complete control) after 13 to 15 days; for Plant response rating, Sedge, Umbrella: Flood (flooded paddy test), 13 to 15 days
Summary of the method: (§2)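 Seedlings reaching 2 leaves are flooded 3 cm deep; test material is delivered to that water, which stays at the same depth. Plants remain in a greenhouse 13–15 days and are then scored by eye versus controls from 0 to 100.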

[10] = test system: rice (Oryza sativa); assay: Test B flooded paddy test; conditions: for Plant response rating, Flood, Rice: 250 g ai/ha, flooded paddy test, visual rating on 0 to 100 scale (0 no effect, 100 complete control) after 13 to 15 days; for Plant response rating, Rice: Flood (flooded paddy test), 13 to 15 days
Summary of the method: as §2

[11] = test system: barnyardgrass (Echinochloa crus-galli); assay: Test B flooded paddy test; conditions: for Plant response rating, Flood, Barnyardgrass: 250 g ai/ha, flooded paddy test, visual rating on 0 to 100 scale (0 no effect, 100 complete control) after 13 to 15 days; for Plant response rating, Barnyardgrass: Flood (flooded paddy test), 13 to 15 days
Summary of the method: as §2

[12] = test system: ducksalad (Heteranthera limosa); assay: Test B flooded paddy test; conditions: for Plant response rating, Flood, Ducksalad: 250 g ai/ha, flooded paddy test, visual rating on 0 to 100 scale (0 no effect, 100 complete control) after 13 to 15 days; for Plant response rating, Ducksalad: Flood (flooded paddy test), 13 to 15 days
Summary of the method: as §2

[13] = test system: winter barley (Hordeum vulgare); assay: Test B postemergence plant response
Summary of the method: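 Plants grown in peat/vermiculite medium were sprayed postemergence at 2–18 cm height (1- to 4-leaf stage). After 13–15 days in the greenhouse, response was rated visually against untreated controls on a 0–100 scale (0 no effect, 100 complete control).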

[14] = Postemergence, 125 g ai/ha, visual injury, 0 to 100 scale (0 no effect, 100 complete control), approx. ten days
[15] = Postemergence, 500 g ai/ha, 0 to 100 scale, 0 = no effect, 100 = complete control, approx. ten days
[16] = Preemergence, 125 g ai/ha, 0 to 100 scale, 0 = no effect, 100 = complete control
[17] = Preemergence, 500 g ai/ha, visual injury, 0 to 100 scale (0 no effect, 100 complete control), approx. ten days
[18] = 62 g ai/ha, scale 0 to 100, 0 is no effect, 100 is complete control
[19] = Postemergence, 62 g ai/ha, scale 0 (no effect) to 100 (complete control), 13 to 15 days
[20] = 31 g ai/ha, scale of 0 to 100 where 0 is no effect and 100 is complete control
[21] = 62 g ai/ha, scale of 0 to 100 where 0 is no effect and 100 is complete control
[22] = 125 g ai/ha, scale 0 to 100, 0 is no effect, 100 is complete control
[23] = Postemergence, 125 g ai/ha, 0 to 100 scale where 0 is no effect and 100 is complete control
[24] = Postemergence, 500 g ai/ha, visual injury, 0 to 100 scale (0 no effect, 100 complete control), approx. ten days
[25] = Preemergence, 500 g ai/ha, 0 to 100 scale, 0 = no effect, 100 = complete control
[26] = Flood, 31 g ai/ha, scale 0 to 100 (0 no effect, 100 complete control)

Cc1cccc(-n2c(-c3ccccc3)ncc(C(=O)C3=C(O)CCCC3=O)c2=O)c1C [Compound 27]
75: Plant response rating, Sedge, Umbrella [9, 18] | Plant response rating, Ducksalad [12, 18]
0: Wheat plant response rating [5, 14] | Plant response rating, Wheat [5, 15] | Plant response rating, Wheat [5, 16] | Plant response rating, Wheat [5, 17] | Corn plant response rating [7, 14] | Plant response rating, Corn [7, 16] | Plant response rating, Corn [7, 17] | Plant response rating, Flood, Rice [10] | Plant response rating, Rice [10, 18] | Plant response rating, Barnyardgrass [11, 18] | Plant response rating, Barley ([13]; Postemergence, 31 g ai/ha, scale 0 to 100 (0 no effect, 100 complete control)) | Plant response rating, Barley [13, 19]
70: Plant response rating, Morningglory [1, 15] | Plant response rating, Pigweed [2, 16] | Crabgrass, Large plant response rating [8, 14]
85: Plant response rating, Flood, Sedge, Umbrella [9] | Plant response rating, Flood, Ducksalad [12]
10: Plant response rating, Barnyardgrass [6, 16] | Plant response rating, Barley ([13]; Postemergence, 125 g ai/ha, scale 0 to 100 (0 no effect, 100 complete control), 13 to 15 days)
40: Plant response rating, Flood, Barnyardgrass [11]
50: Barnyardgrass plant response rating [6, 14]
80: Plant response rating, Morningglory [1, 17] | Foxtail, Giant plant response rating [3, 14] | Plant response rating, Barnyardgrass [6, 17]
30: Plant response rating, Foxtail, Giant [3, 16] | Plant response rating, Corn [7, 15] | Plant response rating, Crabgrass, Large [8, 16]
90: Plant response rating, Pigweed [2, 17] | Plant response rating, Foxtail, Giant [3, 15] | Plant response rating, Foxtail, Giant [3, 17] | Plant response rating, Barnyardgrass [6, 15] | Plant response rating, Crabgrass, Large [8, 17]
20: Plant response rating, Morningglory [1, 16] | Barley plant response rating ([13]; Postemergence, 250 g ai/ha, scale 0 to 100)
60: Morningglory plant response rating [1, 14] | Plant response rating, Velvetleaf [4, 16]
100: Pigweed plant response rating [2, 14] | Plant response rating, Pigweed [2, 15] | Velvetleaf plant response rating [4, 14] | Plant response rating, Velvetleaf [4, 15] | Plant response rating, Velvetleaf [4, 17] | Plant response rating, Crabgrass, Large [8, 15]

CCCn1c(-c2ccccc2)ncc(C(=O)C2=C(O)CCCC2=O)c1=O [Compound 50]
85: Plant response rating, Sedge, Umbrella [9, 22] | Plant response rating, Flood, Ducksalad [12] | Plant response rating, Ducksalad [12, 22]
70: Plant response rating, Ducksalad [12, 20]
95: Plant response rating, Flood, Sedge, Umbrella [9]
80: Morningglory plant response rating [1, 14] | Plant response rating, Morningglory [1, 15] | Plant response rating, Morningglory [1, 17] | Plant response rating, Foxtail, Giant [3, 17] | Plant response rating, Velvetleaf [4, 16]
20: Plant response rating, Flood, Rice [10]
100: Pigweed plant response rating [2, 14] | Plant response rating, Pigweed [2, 15] | Plant response rating, Pigweed [2, 17] | Velvetleaf plant response rating [4, 14] | Plant response rating, Velvetleaf [4, 15] | Plant response rating, Barnyardgrass [6, 15] | Plant response rating, Crabgrass, Large [8, 17]
35: Plant response rating, Barnyardgrass [11, 22]
30: Plant response rating, Corn [7, 15]
75: Plant response rating, Sedge, Umbrella [9, 20] | Plant response rating, Sedge, Umbrella [9, 21] | Plant response rating, Ducksalad [12, 21]
5: Plant response rating, Barley ([13]; Postemergence, 125 g ai/ha, visual rating after 13 to 15 days, scale 0 (no effect) to 100 (complete control)) | Plant response rating, Barley ([13]; Postemergence, 250 g ai/ha, scale 0 to 100 (0 no effect, 100 complete control))
0: Wheat plant response rating [5, 14] | Plant response rating, Wheat [5, 15] | Plant response rating, Wheat [5, 16] | Plant response rating, Wheat [5, 17] | Corn plant response rating [7, 14] | Plant response rating, Corn [7, 16] | Plant response rating, Corn [7, 17] | Plant response rating, Rice [10, 20] | Plant response rating, Barnyardgrass [11, 20] | Plant response rating, Barnyardgrass [11, 21] | Plant response rating, Barley ([13]; 31 g ai/ha, postemergence, scale 0 to 100, 0 is no effect, 100 is complete control) | Plant response rating, Barley [13, 19]
60: Plant response rating, Flood, Barnyardgrass [11]
15: Plant response rating, Rice [10, 22]
90: Plant response rating, Pigweed [2, 16] | Foxtail, Giant plant response rating [3, 14] | Plant response rating, Foxtail, Giant [3, 15] | Plant response rating, Velvetleaf [4, 17] | Barnyardgrass plant response rating [6, 14] | Plant response rating, Barnyardgrass [6, 17] | Crabgrass, Large plant response rating [8, 14] | Plant response rating, Crabgrass, Large [8, 15] | Plant response rating, Crabgrass, Large [8, 16]
50: Plant response rating, Foxtail, Giant [3, 16] | Plant response rating, Barnyardgrass [6, 16]
10: Plant response rating, Rice [10, 21]
40: Plant response rating, Morningglory [1, 16]

Cc1ccc(-n2c(-c3cc(F)cc(F)c3)ncc(C(=O)C3=C(O)CCCC3=O)c2=O)cc1 [Compound 162]
70: Plant response rating, Foxtail, Giant [3, 23]
60: Plant response rating, Velvetleaf [4, 16]
50: Wheat plant response rating [5, 24] | Plant response rating, Wheat [5, 25] | Corn plant response rating [7, 24] | Plant response rating, Barley ([13]; Postemergence, 125 g ai/ha, scale 0 to 100 (0 no effect, 100 complete control))
95: Sedge, Umbrella plant response rating [9, 26]
0: Plant response rating, Morningglory [1, 16] | Plant response rating, Wheat [5, 16] | Plant response rating, Corn [7, 23] | Plant response rating, Corn [7, 16] | Plant response rating, Corn [7, 25] | Rice plant response rating [10, 26]
40: Plant response rating, Barnyardgrass [11, 22]
20: Barnyardgrass plant response rating [11, 26]
25: Plant response rating, Rice [10, 21] | Plant response rating, Barnyardgrass [11, 21]
85: Plant response rating, Barley ([13]; Postemergence, 250 g ai/ha, scale 0 to 100 (0 no effect, 100 complete control), 13 to 15 days)
98: Ducksalad plant response rating [12, 26]
55: Plant response rating, Flood, Barnyardgrass [11]
100: Plant response rating, Morningglory [1, 23] | Morningglory plant response rating [1, 24] | Plant response rating, Pigweed [2, 23] | Pigweed plant response rating [2, 24] | Plant response rating, Pigweed [2, 16] | Plant response rating, Pigweed [2, 25] | Foxtail, Giant plant response rating [3, 24] | Plant response rating, Velvetleaf [4, 23] | Velvetleaf plant response rating [4, 24] | Plant response rating, Velvetleaf [4, 25] | Plant response rating, Barnyardgrass [6, 23] | Barnyardgrass plant response rating [6, 24] | Plant response rating, Barnyardgrass [6, 25] | Crabgrass, Large plant response rating [8, 24] | Plant response rating, Crabgrass, Large [8, 25] | Plant response rating, Flood, Sedge, Umbrella [9] | Plant response rating, Sedge, Umbrella [9, 21] | Plant response rating, Sedge, Umbrella [9, 22] | Plant response rating, Flood, Ducksalad [12] | Plant response rating, Ducksalad [12, 21] | Plant response rating, Ducksalad [12, 22]
30: Plant response rating, Foxtail, Giant [3, 16] | Plant response rating, Wheat [5, 23] | Plant response rating, Barley ([13]; Postemergence, 31 g ai/ha, 0 to 100 scale (0 no effect, 100 complete control))
80: Plant response rating, Morningglory [1, 25] | Plant response rating, Crabgrass, Large [8, 23]
35: Barley plant response rating (0 to 100 scale) ([13]; 62 g ai/ha, postemergence, 0 is no effect, 100 is complete control, 13 to 15 days)
10: Plant response rating, Barnyardgrass [6, 16]
90: Plant response rating, Foxtail, Giant [3, 25] | Plant response rating, Crabgrass, Large [8, 16] | Plant response rating, Flood, Rice [10] | Plant response rating, Rice [10, 22]
